From patent publication US20210255193A1, “LYSINE REACTIVE PROBES AND USES THEREOF” (The Scripps Research Institute, priority 2017, published 2021)

What was measured:
Assay in all cases: competitive isoTOP-ABPP
Assay type in all cases: binding
[1] = biological target: T1, DNMT1 DNA (cytosine-5)-methyltransferase 1 (Homo sapiens, UniProt P26358); conditions: for isoTOP-ABPP reactivity ratio at lysine P26358_K45: 231 sol
T1 construct: isoTOP-ABPP experiments performed in cell lysates (in vitro); endogenous in cells; host or cells: soluble proteome of human cancer cell lines (MDA-MB-231; Ramos and Jurkat also prepared)
T1 sequence (P26358 whole entry): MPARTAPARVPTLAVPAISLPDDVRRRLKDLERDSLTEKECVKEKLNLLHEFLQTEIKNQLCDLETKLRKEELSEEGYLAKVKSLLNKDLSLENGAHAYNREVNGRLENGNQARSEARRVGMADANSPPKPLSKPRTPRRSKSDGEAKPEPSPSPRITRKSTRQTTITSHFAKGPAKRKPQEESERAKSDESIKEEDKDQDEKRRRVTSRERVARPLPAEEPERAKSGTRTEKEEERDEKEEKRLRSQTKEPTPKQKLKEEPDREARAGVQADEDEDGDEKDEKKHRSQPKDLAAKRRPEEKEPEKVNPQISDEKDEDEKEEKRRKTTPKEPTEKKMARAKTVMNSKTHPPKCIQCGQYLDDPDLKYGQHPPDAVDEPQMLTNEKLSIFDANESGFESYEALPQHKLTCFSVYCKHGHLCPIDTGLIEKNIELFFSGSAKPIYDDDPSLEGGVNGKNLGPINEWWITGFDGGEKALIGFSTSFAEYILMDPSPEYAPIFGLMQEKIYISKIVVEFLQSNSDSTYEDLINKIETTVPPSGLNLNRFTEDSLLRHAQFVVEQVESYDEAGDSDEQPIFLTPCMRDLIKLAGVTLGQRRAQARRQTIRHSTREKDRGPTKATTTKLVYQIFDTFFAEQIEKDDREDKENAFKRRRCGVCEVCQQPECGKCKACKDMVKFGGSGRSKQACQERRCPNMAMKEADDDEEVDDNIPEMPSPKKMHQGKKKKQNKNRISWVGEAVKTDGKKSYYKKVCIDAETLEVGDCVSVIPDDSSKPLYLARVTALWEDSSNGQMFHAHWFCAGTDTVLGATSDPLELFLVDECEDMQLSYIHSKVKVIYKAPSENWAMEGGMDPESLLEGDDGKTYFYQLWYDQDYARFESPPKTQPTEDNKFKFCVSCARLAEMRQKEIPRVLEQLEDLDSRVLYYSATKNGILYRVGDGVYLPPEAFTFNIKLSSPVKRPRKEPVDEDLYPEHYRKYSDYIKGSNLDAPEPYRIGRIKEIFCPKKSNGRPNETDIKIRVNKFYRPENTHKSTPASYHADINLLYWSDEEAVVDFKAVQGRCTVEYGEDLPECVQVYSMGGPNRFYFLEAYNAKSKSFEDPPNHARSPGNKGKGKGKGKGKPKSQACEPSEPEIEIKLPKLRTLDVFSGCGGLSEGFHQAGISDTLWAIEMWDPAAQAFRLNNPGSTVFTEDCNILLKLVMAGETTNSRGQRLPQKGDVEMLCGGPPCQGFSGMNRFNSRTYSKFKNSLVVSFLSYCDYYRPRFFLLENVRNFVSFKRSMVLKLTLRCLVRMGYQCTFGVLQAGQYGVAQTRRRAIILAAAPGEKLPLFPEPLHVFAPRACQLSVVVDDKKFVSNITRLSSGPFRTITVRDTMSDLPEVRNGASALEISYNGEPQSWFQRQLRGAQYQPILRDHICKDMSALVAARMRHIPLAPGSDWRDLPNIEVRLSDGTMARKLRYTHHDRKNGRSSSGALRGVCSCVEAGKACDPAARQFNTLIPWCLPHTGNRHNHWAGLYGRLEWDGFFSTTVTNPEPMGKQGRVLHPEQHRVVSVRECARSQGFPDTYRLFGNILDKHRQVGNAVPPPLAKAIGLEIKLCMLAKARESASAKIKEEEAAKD
How it was run: (§1)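 Readout: isotopic light/heavy MS1 peak-area ratio (R, DMSO heavy over compound light), median across peptides sharing a modified lysine. Lysate received fragment (activated esters 50 μM, guanidinylating agents 100 μM final) or DMSO, then 0.1 mM STP-alkyne probe for 1 h at ambient temperature.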

[2] = biological target: T2, IMPDH1 Inosine-5-monophosphate dehydrogenase 1 (Homo sapiens, UniProt P20839); conditions: for isoTOP-ABPP reactivity ratio at lysine P20839_K208: 231 sol
T2 construct: isoTOP-ABPP experiments performed in cell lysates (in vitro); endogenous in cells; host or cells: soluble proteome of human cancer cell lines (MDA-MB-231; Ramos and Jurkat also prepared)
T2 sequence (P20839 whole entry): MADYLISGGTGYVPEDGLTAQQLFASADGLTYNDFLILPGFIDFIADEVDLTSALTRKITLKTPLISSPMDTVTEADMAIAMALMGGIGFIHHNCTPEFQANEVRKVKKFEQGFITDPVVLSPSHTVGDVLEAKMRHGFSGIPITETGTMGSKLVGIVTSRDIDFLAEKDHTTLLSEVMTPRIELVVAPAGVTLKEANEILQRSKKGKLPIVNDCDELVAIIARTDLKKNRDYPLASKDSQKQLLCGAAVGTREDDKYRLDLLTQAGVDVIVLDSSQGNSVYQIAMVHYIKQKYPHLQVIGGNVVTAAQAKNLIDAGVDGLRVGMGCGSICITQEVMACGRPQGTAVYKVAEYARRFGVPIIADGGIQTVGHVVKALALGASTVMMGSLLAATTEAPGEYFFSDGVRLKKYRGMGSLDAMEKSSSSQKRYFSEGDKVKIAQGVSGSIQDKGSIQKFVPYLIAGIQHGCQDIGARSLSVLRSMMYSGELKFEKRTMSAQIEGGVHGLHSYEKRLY
How it was run: as §1

[3] = biological target: T3, RTN4 Reticulon-4 (Homo sapiens, UniProt Q9NQC3); conditions: 50 uM, in vitro; for isoTOP-ABPP reactivity ratio at lysine Q9NQC3_K1104: 231 sol
T3 construct: endogenous in cells; host or cells: MDA-MB-231 lysate
T3 sequence (Q9NQC3 1-1192): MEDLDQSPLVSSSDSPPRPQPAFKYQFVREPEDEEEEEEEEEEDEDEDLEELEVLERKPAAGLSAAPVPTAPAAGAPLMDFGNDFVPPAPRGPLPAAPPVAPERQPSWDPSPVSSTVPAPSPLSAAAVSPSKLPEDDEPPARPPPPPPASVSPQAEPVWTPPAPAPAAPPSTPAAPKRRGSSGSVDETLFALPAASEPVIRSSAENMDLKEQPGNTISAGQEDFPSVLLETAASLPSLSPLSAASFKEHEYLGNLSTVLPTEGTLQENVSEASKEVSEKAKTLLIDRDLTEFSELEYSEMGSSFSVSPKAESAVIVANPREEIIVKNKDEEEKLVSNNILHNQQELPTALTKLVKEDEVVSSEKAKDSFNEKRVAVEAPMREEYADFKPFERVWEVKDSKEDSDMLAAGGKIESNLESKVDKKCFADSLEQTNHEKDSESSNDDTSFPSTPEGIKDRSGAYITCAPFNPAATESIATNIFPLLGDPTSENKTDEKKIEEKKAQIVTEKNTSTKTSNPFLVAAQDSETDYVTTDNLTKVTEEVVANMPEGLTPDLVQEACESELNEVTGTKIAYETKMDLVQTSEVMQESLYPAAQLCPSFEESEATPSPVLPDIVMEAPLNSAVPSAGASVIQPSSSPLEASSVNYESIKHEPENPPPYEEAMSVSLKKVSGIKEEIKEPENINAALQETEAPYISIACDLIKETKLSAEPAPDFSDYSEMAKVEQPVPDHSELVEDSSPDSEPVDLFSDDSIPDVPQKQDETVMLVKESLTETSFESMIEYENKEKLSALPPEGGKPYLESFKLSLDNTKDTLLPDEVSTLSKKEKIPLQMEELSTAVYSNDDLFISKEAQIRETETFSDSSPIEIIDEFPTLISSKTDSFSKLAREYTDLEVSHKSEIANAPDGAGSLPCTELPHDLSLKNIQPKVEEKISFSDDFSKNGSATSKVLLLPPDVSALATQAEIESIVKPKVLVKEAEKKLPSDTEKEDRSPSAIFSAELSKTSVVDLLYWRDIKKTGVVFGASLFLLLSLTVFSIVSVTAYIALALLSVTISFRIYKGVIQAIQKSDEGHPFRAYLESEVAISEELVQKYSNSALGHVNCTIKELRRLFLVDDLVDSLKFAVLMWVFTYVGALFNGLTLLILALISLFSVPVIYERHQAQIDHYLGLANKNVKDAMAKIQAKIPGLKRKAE
How it was run: as §1

[4] = biological target: T4, TTR Transthyretin (Homo sapiens, UniProt P02766); conditions: for isoTOP-ABPP reactivity ratio at lysine P02766_K35: 50 uM, 231 sol, in vitro
T4 construct: isoTOP-ABPP experiments performed in cell lysates (in vitro); endogenous in cells; host or cells: MDA-MB-231 soluble lysate
How it was run: as §1

Structure (SMILES)	isoTOP-ABPP reactivity ratio at lysine P26358_K45 ([1]; 50 uM, in vitro)	isoTOP-ABPP reactivity ratio at lysine P20839_K208 ([2]; 50 uM, in vitro)	isoTOP-ABPP reactivity ratio at lysine Q9NQC3_K1104 [3]	isoTOP-ABPP reactivity ratio at lysine P02766_K35 [4]	isoTOP-ABPP ratio (R) at liganded lysine P26358_K45 ([1]; 50 uM, in vitro, sol, 231)	isoTOP-ABPP ratio (R) at liganded lysine P20839_K208 ([2]; 50 uM, in vitro, sol, 231)	isoTOP-ABPP ratio (R) at liganded lysine Q9NQC3_K1104 ([3]; sol, 231)	isoTOP-ABPP ratio, lysine P26358_K45 ([1]; 50 uM_231_sol_in vitro)	isoTOP-ABPP ratio, lysine P20839_K208 ([2]; 50 uM_231_sol_in vitro)	isoTOP-ABPP ratio, lysine P02766_K35 ([4]; 50 uM_231_sol_in vitro)
O=C(CCc1cn(-c2ccccc2)nc1-c1ccccc1)Oc1ccc([N+](=O)[O-])cc1[N+](=O)[O-] [fragment 29, 2,4-Dinitrophenyl 3-(1,3-diphenyl-1H-pyrazol-4-yl)propanoate]	0.9	1.3	15.6	1.6						
COc1cc(CCC(=O)Oc2ccc([N+](=O)[O-])cc2[N+](=O)[O-])cc(OC)c1OC [fragment 33, 2,4-Dinitrophenyl 3-(3,4,5-trimethoxyphenyl)propanoate]	0.9	1.2	4.3	2.7						
O=C(Oc1ccc([N+](=O)[O-])cc1[N+](=O)[O-])c1ccc(-c2ccccc2)cc1 [fragment 37, 2,4-Dinitrophenyl [1,1′-biphenyl]-4-carboxylate]					0.7	1.4	3.4			
O=C(CCc1ccc2c(c1)OCO2)Oc1ccc([N+](=O)[O-])cc1[N+](=O)[O-] [fragment 45, 2,4-Dinitrophenyl 3-(benzo[d][1,3]dioxol-5-yl)propanoate]								1.0	1.5	2.5
